Legend:
P. aeruginosa = details: salicylic acid between 5 mM and 60 mM in growth medium; cited from earlier work
P. putida LS46 [1] = test: Effects of salicylic acid on production of mcl-PHAs by P. putida LS46; type: cell-based, Pseudomonas putida; details: 1.0 mM salicylic acid; Ramsey's medium + 2% glucose; 48 h
P. putida LS46 [2] = test: Growth of P. putida LS46 in the presence of salicylic acid; type: cell-based, Pseudomonas putida; details: salicylic acid at 10 mM
Description: (§1) Salicylic acid has been used as an inhibitor of β-oxidation in plant, animal, and bacterial cells. […] Salicylic acid at 10 mM inhibited P. putida LS46 growth. Therefore, 1-5 mM concentration of salicylic acid was studied for its effect on mcl-PHA production by P. putida LS46. To separate volumes of Ramsey's liquid medium supplemented with 2% of glucose were added: (i) no salicylic acid (control), (ii) 1.0 nM salicylic acid, (iii) 2.5 mM salicylic acid, or (iv) 5.0 salicylic acid. After sterilization, the liquid media were dispensed into flasks which were then each inoculated with 1% inoculum of P. putida LS46, and then cultured for 48 h. Cultures were then harvested and their cdw, the percentage accumulation of mcl-PHAs in the cells, and the mol % monomer composition of C8 […] the mcl-PHAs were determined. […] 3-hydroxyoctanoate decreased, while 3-hydroxydecanoate increased, in the presence of 2.5 mM and 5.0 mM salicylic acid, compared with the control (Table 6).

P. putida LS46 [3] = test: Effects of salicylic acid on production of mcl-PHAs by P. putida LS46; type: cell-based, Pseudomonas putida; details: Ramsey's medium + 2% glucose, 48 h
Description: Six of the microbial isolates (i.e., LS1, LS5, LS33, LS34, LS39, LS46) that produced epifluorescence under UV illumination were separately cultured for 72 h in: (i) 200 mL LB broth, and (ii) 200 mL LB broth supplemented with 3 g/L glucose. The microbial cells were centrifuged at 4500 g for 20 min in a Sorvall RC6-Plus centrifuge. The microbial pellets were washed twice in 0.85% NaCl and then dried at 80° C. for 48 h. The intracellular PHA contents and PHA composition were determined by GC-MS following the method taught by Braunegg et al. (1978, Eur. J. Appl. Microbiol. Biotechnol. 6:29-37). Dried cells (20 mg) were mixed with 1 mL chloroform and 1 mL methanol containing 15% sulphuric acid. Benzoic acid (1 mg/mL) was used as an internal standard. The suspensions were refluxed at 100° C. for 4 h, after which, 0.5 ml of water were added to each suspension. The mixtures were centrifuged at 4000×g. The lower chloroform layers were separated and analyzed using a GC-MS fitted FID detector and aHP-5 capillary column. The initial oven temperature was set at 75° C. for 6 min and then was increased to 265° C. with a ramping rate of 20° C./min.
as §1, with “To separate volumes of Ramsey's liquid medium supplemented with 2% of glucose were added: (i) no salicylic acid (control), (ii) 1.0 nM salicylic acid, (iii) 2.5 mM salicylic acid, or (iv) 5.0 salicylic acid.” left out

SMILES: O=C(O)c1ccccc1O [Salicylic acid, salicylic acid]
- monomer composition of mcl-PHAs produced by P. aeruginosa (P. aeruginosa): altered the monomer composition
- 3-hydroxyalkanoate monomer content C6 (P. putida LS46 [1]): 3.97 mol %
- 3-hydroxyalkanoate monomer content C8 (P. putida LS46 [1]): 46.30 mol %
- PHA content (P. putida LS46 [1]): 26.07 % CDW
- growth of P. putida LS46 (P. putida LS46 [2]): inhibited
- 3-hydroxyalkanoate monomer content C10 (P. putida LS46 [3]; 1.0 mM salicylic acid): 47.90 mol %
- 3-hydroxyalkanoate monomer content C12 (P. putida LS46 [3]; 1.0 mM salicylic acid): 1.91 mol %
- CDW (P. putida LS46 [3]; 1.0 mM salicylic acid): 3.08 g/L
- 3-hydroxyalkanoate monomer content C6 (P. putida LS46 [3]; 2.5 mM salicylic acid): 3.39 mol %
- 3-hydroxyalkanoate monomer content C8 (P. putida LS46 [3]; 2.5 mM salicylic acid): 44.06 mol %
- 3-hydroxyalkanoate monomer content C10 (P. putida LS46 [3]; 2.5 mM salicylic acid): 52.03 mol %
- 3-hydroxyalkanoate monomer content C12 (P. putida LS46 [3]; 2.5 mM salicylic acid): 0.93 mol %
- CDW (P. putida LS46 [3]; 2.5 mM salicylic acid): 2.89 g/L
- PHA content (P. putida LS46 [3]; 2.5 mM salicylic acid): 28.90 % CDW
- 3-hydroxyalkanoate monomer content C6 (P. putida LS46 [3]; 5.0 mM salicylic acid): 2.46 mol %
- 3-hydroxyalkanoate monomer content C8 (P. putida LS46 [3]; 5.0 mM salicylic acid): 42.49 mol %
- 3-hydroxyalkanoate monomer content C10 (P. putida LS46 [3]; 5.0 mM salicylic acid): 53.36 mol %
- 3-hydroxyalkanoate monomer content C12 (P. putida LS46 [3]; 5.0 mM salicylic acid): 0.66 mol %
- CDW (P. putida LS46 [3]; 5.0 mM salicylic acid): 2.64 g/L
- PHA content (P. putida LS46 [3]; 5.0 mM salicylic acid): 21.89 % CDW

Reference: patent publication US20130288323A1, “MICROBIAL PRODUCTION OF POLYHYDROXYALKANOATES” (UNIVERSITY OF MANITOBA, priority 2010, published 2013)
